Measured values: patent US6706663B2, “Herbicidal 3-heterocyclic substituted benzisothiazole and benzisoxazole compounds” (Wyeth, priority 2000, dated 2004)

Experiments:
[1] = tested on: ABUTH (Abutilon theophrasti); experiment: Postemergence herbicidal evaluation; type: in vivo, Medic.; conditions: postemergence
Outline: (§1)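 Seedlings grown about two weeks in flats, sprayed, then kept under standard greenhouse care. Rated visually 4–5 weeks after treatment on a 0–9 scale (stand, vigour, malformation, size, chlorosis, overall appearance) relative to untreated control; repeat tests averaged.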

[2] = tested on: ORYSAT (Rice, Tebonnet); experiment: Preemergence herbicidal evaluation; type: in vivo, Oryza sativa, (L.) Tebonnet; conditions: preemergence, rate 0.3000 kg/ha, rated 4-5 weeks after treatment
[3] = tested on: TRZAWR (Wheat, Winter, cv Riband); experiment: Postemergence herbicidal evaluation; type: in vivo, Triticum aestivum; conditions: postemergence, rate 0.3000 kg/ha
Outline: as §1

[4] = tested on: IPOSS (Ipomoea Spp.); experiment: Preemergence herbicidal evaluation; type: in vivo; conditions: rate 0.3000 kg/ha, rated 4-5 weeks after treatment
From the text: (§2) Results of herbicide evaluation are expressed on a rating scale (0-9). The scale is based upon a visual observation of plant stand, vigor, malformation, size, chlorosis and overall plant appearance as compared with a control.
The preemergence herbicidal activity of the test compounds of the present invention is exemplified by the following tests in which the seeds of a variety of monocotyledonous and dicotyledonous plants are separately mixed with potting soil and planted on top of approximately one inch of soil in separate pint cups. After planting, the cups are sprayed with the selected aqueous acetone solution containing test compound in sufficient quantity to provide the equivalent of about […] per hectare of test compound per cup. The treated cups are then placed on greenhouse benches, watered and cared for in accordance with conventional greenhouse procedures. From four to five weeks after treatment, the tests are terminated and each cup is examined and rated according to the rating system provided in Example 87. The plant species used and the compounds evaluated are the same as those shown in Example 87.

[5] = tested on: ZEAMX (Corn, Field); experiment: Postemergence herbicidal evaluation; type: in vivo, Zea mays, L.; conditions: postemergence
Outline: as §1

[6] = tested on: IPOHE (Ipomoea hederacea); experiment: Postemergence herbicidal evaluation; type: in vivo, (L.) Jacq.; conditions: postemergence
Outline: as §1

[7] = tested on: ORYSAT (Rice, Tebonnet); experiment: Postemergence herbicidal evaluation; type: in vivo, Oryza sativa, (L.) Tebonnet; conditions: postemergence, rate 0.3000 kg/ha
Outline: as §1

[8] = tested on: GLXMAW (Soybean, Williams); experiment: Preemergence herbicidal evaluation; type: in vivo, Glycine max, (L.) Merr. cv Williams; conditions: preemergence, rate 0.3000 kg/ha, rated 4-5 weeks after treatment
[9] = tested on: SETVI (Setaria viridis); experiment: Preemergence herbicidal evaluation; type: in vivo, (L.) Beau; conditions: preemergence, rate 0.3000 kg/ha, rated 4-5 weeks after treatment
Outline: (§3)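 Applied before emergence as an aqueous acetone spray over seeded soil. Read-out: 0–9 visual rating covering plant stand, vigor, size, chlorosis, malformation and overall appearance compared with control, taken 4–5 weeks after spraying.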

[10] = tested on: ECHCG (Echinochloa crus-galli); experiment: Preemergence herbicidal evaluation; type: in vivo, (L.) Beau; conditions: preemergence, rate 0.3000 kg/ha, rated 4-5 weeks after treatment
Outline: as §3

[11] = tested on: GALAP (Galium aparine); experiment: Postemergence herbicidal evaluation; type: in vivo; conditions: postemergence, rate 0.3000 kg/ha
Outline: as §1

[12] = tested on: AMBEL (Ambrosia artemisifolia); experiment: Postemergence herbicidal evaluation; type: in vivo, L.; conditions: postemergence
Outline: as §1

[13] = tested on: CHEAL (Chenopodium album); experiment: Postemergence herbicidal evaluation; type: in vivo, L.; conditions: postemergence
Outline: as §1

[14] = tested on: TRZAWR (Wheat, Winter, cv Riband); experiment: Preemergence herbicidal evaluation; type: in vivo, Triticum aestivum; conditions: preemergence, rate 0.3000 kg/ha, rated 4-5 weeks after treatment
Outline: as §3

[15] = tested on: ABUTH (Abutilon theophrasti); experiment: Preemergence herbicidal evaluation; type: in vivo, Medic.; conditions: preemergence, rate 0.3000 kg/ha, rated 4-5 weeks after treatment
[16] = tested on: GLXMA (Soybean); experiment: Postemergence herbicidal evaluation; type: in vivo, Glycine max, (L.) Merr.; conditions: postemergence
Experimental: (§4) In the tests, seedling plants are grown in jiffy flats for about two weeks. The test compounds are dispersed in 50/50 acetone/water mixtures containing 0.5% TWEEN® 20, a polyoxyethylene sorbitan monolaurate surfactant of Atlas Chemical Industries, in sufficient quantities to provide the equivalent of about 0.0040 kg to 1.000 kg per hectare of active compound when applied to the plants through a spray nozzle operating at 40 psi for a predetermined time. After spraying, the plants are placed on greenhouse benches and are cared for in accordance with conventional greenhouse procedures. From four to five weeks after treatment, the seedling plants are examined and rated according to the rating system set forth below. Where more than one test is involved for a given compound, the data are averaged.
as §2

[17] = tested on: SETVI (Setaria viridis); experiment: Postemergence herbicidal evaluation; type: in vivo, (L.) Beau; conditions: postemergence
Outline: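 Visual injury score (0-9: stand, vigor, malformation, size, chlorosis, overall appearance vs untreated control) taken four to five weeks post-spray. Two-week-old seedlings received about 0.0040 to 1.000 kg/ha active compound in acetone/water with 0.5% TWEEN 20.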

[18] = tested on: AMBEL (Ambrosia artemisifolia); experiment: Preemergence herbicidal evaluation; type: in vivo, L.; conditions: preemergence, rate 0.3000 kg/ha, rated 4-5 weeks after treatment
Outline: as §3

[19] = tested on: CHEAL (Chenopodium album); experiment: Preemergence herbicidal evaluation; type: in vivo, L.; conditions: preemergence, rate 0.3000 kg/ha, rated 4-5 weeks after treatment
Outline: as §3

[20] = tested on: GLXMAW (Soybean, Williams); experiment: Postemergence herbicidal evaluation; type: in vivo, Glycine max, (L.) Merr. cv Williams; conditions: postemergence, rate 0.3000 kg/ha
Outline: as §1

[21] = tested on: IPOSS (Ipomoea Spp.); experiment: Postemergence herbicidal evaluation; type: in vivo; conditions: rate 0.3000 kg/ha
Experimental: as §4, §2

[22] = tested on: ECHCG (Echinochloa crus-galli); experiment: Postemergence herbicidal evaluation; type: in vivo, (L.) Beau; conditions: postemergence
Outline: as §1

[23] = tested on: GALAP (Galium aparine); experiment: Preemergence herbicidal evaluation; type: in vivo; conditions: preemergence, rate 0.3000 kg/ha, rated 4-5 weeks after treatment
Outline: as §3

[24] = tested on: ZEAMX (Corn, Field); experiment: Preemergence herbicidal evaluation; type: in vivo, Zea mays, L.; conditions: preemergence, rate 0.3000 kg/ha, rated 4-5 weeks after treatment

For Cn1c(C(F)(F)F)cc(=O)n(-c2ccc3snc(C4(O)C(=O)NC(=N)C4(C)C)c3c2)c1=O (centres unmarked) [Compound 96], the ABUTH herbicidal rating ([1]; rate 0.0320 kg/ha) was 3.0, the ABUTH herbicidal rating ([1]; rate 0.0620 kg/ha) was 4.0 and the ABUTH herbicidal rating ([1]; rate 0.3000 kg/ha) was 9.0. The “Preemergence herbicidal rating ORYSAT” value [2] was 0.0, the TRZAWR herbicidal rating [3] was 0.0 and the “Preemergence herbicidal rating IPOSS” value [4] was 4.0. For the same compound, the ZEAMX herbicidal rating ([5]; rate 0.0320 kg/ha) was 3.0, the ZEAMX herbicidal rating ([5]; rate 0.0620 kg/ha) was 3.0 and the ZEAMX herbicidal rating ([5]; rate 0.3000 kg/ha) was 2.0. The IPOHE herbicidal rating ([6]; rate 0.0320 kg/ha) was 3.0, the IPOHE herbicidal rating ([6]; rate 0.0620 kg/ha) was 6.0 and the ORYSAT herbicidal rating [7] was 0.0. The “Preemergence herbicidal rating GLXMAW” value [8] was 0.0, the “Preemergence herbicidal rating SETVI” value [9] was 0.0 and the “Preemergence herbicidal rating ECHCG” value [10] was 0.0. It also gave a GALAP herbicidal rating [11] of 0.0, an AMBEL herbicidal rating ([12]; rate 0.0320 kg/ha) of 4.0 and an AMBEL herbicidal rating ([12]; rate 0.0620 kg/ha) of 5.0. The AMBEL herbicidal rating ([12]; rate 0.3000 kg/ha) was 6.0, the CHEAL herbicidal rating ([13]; rate 0.0320 kg/ha) was 3.0 and the CHEAL herbicidal rating ([13]; rate 0.0620 kg/ha) was 4.0. The CHEAL herbicidal rating ([13]; rate 0.3000 kg/ha) was 9.0, the “Preemergence herbicidal rating TRZAWR” value [14] was 0.0 and the “Preemergence herbicidal rating ABUTH” value [15] was 6.0. The GLXMA herbicidal rating ([16]; rate 0.0320 kg/ha) was 5.5, the GLXMA herbicidal rating ([16]; rate 0.0620 kg/ha) was 6.0 and the SETVI herbicidal rating ([17]; rate 0.0320 kg/ha) was 2.0. The SETVI herbicidal rating ([17]; rate 0.0620 kg/ha) was 2.0, the SETVI herbicidal rating ([17]; rate 0.3000 kg/ha) was 4.0 and the “Preemergence herbicidal rating AMBEL” value [18] was 0.0. For the same compound, the “Preemergence herbicidal rating CHEAL” value [19] was 7.0, the GLXMAW herbicidal rating [20] was 5.0 and the IPOSS herbicidal rating [21] was 3.0. The ECHCG herbicidal rating ([22]; rate 0.0320 kg/ha) was 1.0, the ECHCG herbicidal rating ([22]; rate 0.0620 kg/ha) was 2.0 and the ECHCG herbicidal rating ([22]; rate 0.3000 kg/ha) was 0.0. For the same compound, the “Preemergence herbicidal rating GALAP” value [23] was 6.0 and the “Preemergence herbicidal rating ZEAMX” value [24] was 0.0.
